Assay results: PMC5634478, “Usefulness of kidney slices for functional analysis of apical reabsorptive transporters” (Scientific Reports, 2017)
Like-named read-outs stand apart in the source and are kept apart here. Where a SMILES comes first, the peptide text is derived from it.

Tests used:
Octn1 = biological target: T1, Octn1 (Mus musculus, UniProt Q9Z306); test: Uptake of [3H]ergothioneine by mice kidney slices; format: in vitro ADME; conditions: for inhibition of [3H]ergothioneine uptake by kidney slices at low inhibitor concentration: 0.5 mM carnitine, 0.1 mM cimetidine; for effect on Na+-dependent uptake of [3H]ergothioneine into mice kidney slices: Fig. 3A
T1 construct: between native Octn1 in kidney tissues and transporter-gene transfected cells; from tissue; host or cells: mouse kidney slices (0.3 mm; male ICR mice, or C57BL/6J-backcrossed wild-type and Octn1-/- mice)
T1 sequence (Q9Z306 1-553): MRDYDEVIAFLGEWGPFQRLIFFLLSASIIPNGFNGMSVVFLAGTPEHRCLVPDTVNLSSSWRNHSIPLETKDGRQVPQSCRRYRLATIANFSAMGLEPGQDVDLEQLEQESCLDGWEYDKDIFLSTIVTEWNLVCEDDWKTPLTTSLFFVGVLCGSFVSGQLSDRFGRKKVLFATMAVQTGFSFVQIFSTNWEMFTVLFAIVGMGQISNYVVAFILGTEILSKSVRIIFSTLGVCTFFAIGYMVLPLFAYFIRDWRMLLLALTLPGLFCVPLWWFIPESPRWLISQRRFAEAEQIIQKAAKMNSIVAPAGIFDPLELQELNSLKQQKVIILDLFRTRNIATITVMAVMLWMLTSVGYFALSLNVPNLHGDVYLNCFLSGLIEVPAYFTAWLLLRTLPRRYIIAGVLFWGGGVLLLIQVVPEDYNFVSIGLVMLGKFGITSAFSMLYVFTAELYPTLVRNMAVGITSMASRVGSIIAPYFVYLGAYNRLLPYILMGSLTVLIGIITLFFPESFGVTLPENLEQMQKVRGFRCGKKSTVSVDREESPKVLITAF
Description: (§1) Uptake studies using mouse kidney slices were carried out as described in a previous report after slight modifications. The slices of whole kidneys were prepared with a microslicer (Zero 1; Dosaka EM, Kyoto, Japan), and the renal pelvis portion was removed. Prepared slices (0.3 mm thick) of whole kidneys from male mice were immediately put in ice-cold oxygenated transport buffer (130 mM NaCl, 4.8 mM KCl, 1.2 mM CaCl2, 1.2 mM MgSO4, 1.2 mM KH2PO4 and 25 mM HEPES, adjusted to pH 7.4). When uptake was conducted in Na^+-free condition, NaCl was replaced with N-methyl-D-glucamine (NMG) in transport buffer. Three or four slices from one mouse, weighing each slice 2 to 10 mg, were randomly selected and then pre-incubated in a 24-well plate with 1.0 ml of oxygenated transport buffer in each well at 37 °C for 5 min. After pre-incubation, the kidney slices were put into transport buffer containing radiolabeled substrates with or without inhibitors to initiate the uptake reaction. The uptake reactions were carried out at 37 °C for an appropriate time, and then each slice was rapidly removed from the transport buffer, washed twice in ice-cold transport buffer, blotted on filter paper and weighed. For measurement of radiolabeled compounds, the slices were dissolved in 0.15 ml of 1 N NaOH. Then, the lysate was neutralized with HCl. The apparent uptake of [^14C]inulin was evaluated in independent experiments (n = 3) to estimate the volume of water adhering to the kidney slices after an incubation. […] Viability of the isolated kidney slices was assessed as described in the supplemental file.
Radioactivity was quantified with a liquid scintillation counter (Aloka, Tokyo, Japan). To calculate kinetic parameters for carrier-mediated uptake of test substrates, uptake rate was fitted to eq. (1) by means of a nonlinear least-squares regression analysis using MULTI program[36]:1 v=Vmax×s/(Km+s) where v, s, K m, and V max are the uptake rate of substrate, the substrate concentration in the medium, the apparent Michaelis-Menten constant, and the maximal uptake rate, respectively.
(§2) The half-inhibitory concentration (IC 50) values of inhibitors were obtained by examining their inhibitory effects on uptake of test substrates according to the following equation (2):2 %ofcontrol=IC50/(IC50+I) where % of control represents inhibition rate in the presence of inhibitors and I is inhibitor concentration.

Oct2 = conditions: read-out: IC 50 for Oct2; cited from earlier work
Mate1 = conditions: read-out: IC 50 for Mate1; cited from earlier work
Mouse Octn1 = Mouse Octn1 (Mus musculus, UniProt Q9Z306); conditions: Octn1-expressing HEK293 cells, previous report, cited from earlier work
Pept1/2 = test: Uptake of [3H]Gly-Sar by mice kidney slices; format: in vitro ADME; conditions: for effect on uptake of [3H]Gly-Sar by mice kidney slices: 5 mM Gly-Leu, 100 μM cephadroxil, 37 °C
Description: Uptake studies using mouse kidney slices were carried out as described in a previous report after slight modifications. The slices of whole kidneys were prepared with a microslicer (Zero 1; Dosaka EM, Kyoto, Japan), and the renal pelvis portion was removed. Prepared slices (0.3 mm thick) of whole kidneys from male mice were immediately put in ice-cold oxygenated transport buffer (130 mM NaCl, 4.8 mM KCl, 1.2 mM CaCl2, 1.2 mM MgSO4, 1.2 mM KH2PO4 and 25 mM HEPES, adjusted to pH 7.4). When uptake was conducted in Na^+-free condition, NaCl was replaced with N-methyl-D-glucamine (NMG) in transport buffer. Three or four slices from one mouse, weighing each slice 2 to 10 mg, were randomly selected and then pre-incubated in a 24-well plate with 1.0 ml of oxygenated transport buffer in each well at 37 °C for 5 min. After pre-incubation, the kidney slices were put into transport buffer containing radiolabeled substrates with or without inhibitors to initiate the uptake reaction. The uptake reactions were carried out at 37 °C for an appropriate time, and then each slice was rapidly removed from the transport buffer, washed twice in ice-cold transport buffer, blotted on filter paper and weighed. For measurement of radiolabeled compounds, the slices were dissolved in 0.15 ml of 1 N NaOH. Then, the lysate was neutralized with HCl. The apparent uptake of [^14C]inulin was evaluated in independent experiments (n = 3) to estimate the volume of water adhering to the kidney slices after an incubation. In this study, observed extracellular adhered water space was 0.128 ± 0.004 μL/5 min/mg kidney. Viability of the isolated kidney slices was assessed as described in the supplemental file.
Radioactivity was quantified with a liquid scintillation counter (Aloka, Tokyo, Japan). To calculate kinetic parameters for carrier-mediated uptake of test substrates, uptake rate was fitted to eq. […]

PEPT1 = test system: PEPT1; set-up: method as in PMID 11004485; conditions: cited from earlier work
PEPT2 = test system: PEPT2; set-up: method as in PMID 15862787; conditions: cited from earlier work
Sglt2 = test system: Sglt2; set-up: method as in PMID 22139434; conditions: cited from earlier work
Octn2 = biological target: T2, Octn2 (Mus musculus, UniProt Q9Z0E8); test: Uptake of [3H]carnitine by mice kidney slices; format: in vitro ADME
T2 construct: from tissue; host or cells: mouse kidney slices (male ICR mice)
T2 sequence (Q9Z0E8 1-557): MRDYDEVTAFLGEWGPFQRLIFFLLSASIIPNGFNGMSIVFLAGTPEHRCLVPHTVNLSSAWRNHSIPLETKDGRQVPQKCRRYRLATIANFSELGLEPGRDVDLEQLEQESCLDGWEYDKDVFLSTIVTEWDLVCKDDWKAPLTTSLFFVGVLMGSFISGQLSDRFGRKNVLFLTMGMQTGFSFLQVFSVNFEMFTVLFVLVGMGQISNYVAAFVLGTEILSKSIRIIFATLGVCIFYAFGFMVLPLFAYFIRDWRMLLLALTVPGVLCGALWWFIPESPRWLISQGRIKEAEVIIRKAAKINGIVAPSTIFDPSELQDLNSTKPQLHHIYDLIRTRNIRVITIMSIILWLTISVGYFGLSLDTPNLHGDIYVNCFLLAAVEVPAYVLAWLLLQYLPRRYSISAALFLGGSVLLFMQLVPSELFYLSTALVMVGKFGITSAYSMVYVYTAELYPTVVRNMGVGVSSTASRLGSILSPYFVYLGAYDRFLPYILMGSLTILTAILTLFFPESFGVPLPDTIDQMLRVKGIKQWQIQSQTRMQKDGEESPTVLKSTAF
Description: as §1, with “The uptake reactions were carried out at 37 °C for an appropriate time, and then each slice was rapidly removed from the transport buffer, washed twice in ice-cold transport buffer, blotted on filter paper and weighed. For measurement of radiolabeled compounds, the slices were dissolved in 0.15 ml of 1 N NaOH. Then, the lysate was neutralized with HCl.” left out, “file. […]” for “file.”

Mouse Octn2 [1] = biological target: T3, Mouse Octn2 (Mus musculus, UniProt Q9Z0E8); test: Uptake of [3H]carnitine by Octn2-expressing HEK293 cells; format: cell-based; conditions: [3H]carnitine 1.0 μM, 15 sec, mock subtracted, read-out: IC 50 for carnitine uptake, Expression Model
T3 construct: expressed in transfected cells; host or cells: HEK293
T3 sequence (Q9Z0E8 1-557): T2 sequence (Q9Z0E8 1-557)

Mouse Octn2 [2] = biological target: T3, Mouse Octn2; set-up: method as in PMID 11010964; conditions: cited from earlier work
Sglt1/2 = test: Uptake of [14C]αMG by mice kidney slices; format: in vitro ADME; conditions: for effect on [14C]αMG uptake by kidney slices, inhibitor alone: 30 mM galactose, D-glucose free
Description: as §1, §2

[3] = [3H]ergothioneine 1.0 μM, 3 min

## CN/C(=N/CCSCc1nc[nH]c1C)NC#N [Cimetidine]
Octn1
  inhibition of [3H]ergothioneine uptake by kidney slices at low inhibitor concentration: no significant inhibition
Octn1; [3]
  effect on Na+-dependent uptake of [3H]ergothioneine into mice kidney slices: significantly reduced
Oct2
  IC50: 8 µM
Mate1
  IC50: 16.3 µM

## C[N+](C)(C)[C@@H](Cc1c[nH]c(=S)[nH]1)C(=O)[O-] [Ergothioneine, ergothioneine]
Octn1; 81.5 μM versus 4.68 μM
  K m in kidney slices relative to K m in Octn1-expressing HEK293 cells: 17 times
Octn1; [3H]ergothioneine 1.0 μM, pH 7.4, 37 °C, 1-20 min
  uptake in the presence of Na+ versus absence of Na+: significantly higher
Octn1; pH 7.4, 37 °C, 3 min, 1-250 μM
  K m of ergothioneine uptake, Mice Kidney Slice: 69.8 ± 27.6 µM
Octn1; slice viability, pre-incubation pH 7.4, 37 °C
  uptake of [3H]ergothioneine in 1 hr after removal of kidney compared with 25 min: 69.0 ± 6.6%
Mouse Octn1
  K m of ergothioneine, Expression Model: 4.68[22] µM
Mouse Octn1; listed as ergothioneine
  K m of ergothioneine, Expression Model: 4.68 µM

## CC(C)CC(NC(=O)CN)C(=O)O (stereo not shown) [Gly-Leu, glycyl-leucine]
Pept1/2
  effect on uptake of [3H]Gly-Sar by mice kidney slices: decreased

## CN(CC(=O)O)C(=O)CN [Gly-Sar, glycylsarcosine] (HELM PEPTIDE1{G.[Sar]}$$$$V2.0)
Pept1/2; pH 7.4, 37 °C, 5 min, 10-300 μM
  K m of Gly-Sar uptake, Mice Kidney Slice: 161 ± 17 µM
PEPT1
  K m of Gly-Sar, Expression Model (PEPT1): 600 (PEPT1)[37] µM
PEPT2
  K m of Gly-Sar, Expression Model (PEPT2): 79.5 (PEPT2)[31] µM
PEPT2; listed as [^3H]Gly-Sar
  K m of Gly-Sar, Expression Model (PEPT2): 79.5 µM

## COc1ccc(CCN(C)CCCC(C#N)(c2ccc(OC)c(OC)c2)C(C)C)cc1OC (stereo not shown) [Verapamil]
Octn2
  IC50: 363 ± 142 µM
Mouse Octn2 [1]
  IC50: 94.1 ± 8.9 µM

## C[N+](C)(C)CC(O)CC(=O)[O-] (stereo not shown) [carnitine]
Octn1
  inhibition of [3H]ergothioneine uptake by kidney slices at low inhibitor concentration: no significant inhibition
Octn1; [3]
  effect on Na+-dependent uptake of [3H]ergothioneine into mice kidney slices: significantly reduced
Octn2; [3H]carnitine 1.3 nM, pH 7.4, 37 °C, 1-20 min
  uptake in the presence of Na+ versus absence of Na+: significantly higher
Mouse Octn2 [2]
  K m value of carnitine for Octn2: 22.1 µM

## CC1=C(C(=O)O)N2C(=O)[C@@H](NC(=O)[C@H](N)c3ccc(O)cc3)[C@H]2SC1 [cephadroxil]
Pept1/2
  effect on uptake of [3H]Gly-Sar by mice kidney slices: decreased

## CCOc1ccc(Cc2cc([C@@H]3O[C@H](CO)[C@@H](O)[C@H](O)[C@H]3O)ccc2Cl)cc1 [dapagliflozin]
Sglt1/2; 50 nM dapagliflozin, 5 min
  effect on [14C]αMG uptake with 30 mM galactose or 1 mM D-glucose simultaneously added: decreased
  effect on [14C]αMG uptake by kidney slices, inhibitor alone: not affected
Sglt1/2; 10 mM D-glucose, Sglt1 and Sglt2 saturated
  effect on αMG uptake in the presence of 10 mM D-glucose: no further decrease
Sglt2; read-out: IC 50 of Sglt2 inhibitor
  IC50: […]

## O=C[C@H](O)[C@@H](O)[C@@H](O)[C@H](O)CO [galactose, D-galactose]
Sglt1/2; 50 nM dapagliflozin, 5 min
  effect on [14C]αMG uptake by kidney slices, inhibitor alone: decreased
